Columns and labels:
Assay type in all cases: cell-based
P. falciparum 3D7 = test: P. falciparum primary screening at three fixed concentrations; settings: average of at least three experiments; for activity at 1 µM / activity at 10 µM / activity at 100 µM: Plasmodium falciparum, read-out: Primary screening, parasite growth relative to the negative control; for activity at 1 µM: 3D7, compound at 1 µM; for activity at 10 µM: 3D7, compound at 10 µM; for activity at 100 µM: 3D7, compound at 100 µM
Description: Apicomplexan parasite cultures were maintained at 3% hematocrit under an atmosphere of 37 °C in 93% N2, 5% CO2, and 2% O2, following standard methods. Synchronized cultures were obtained via 5% sorbitol lysis.
[…] Conditions were tested in triplicate for every concentration, and the test was repeated when the standard deviation was above 10% for any concentration. Z-values varied between 0.83 and 0.98 in the different plates analyzed. Selected compounds (12.3% potential hit rate) were further analyzed via standard growth inhibition assays, carried out as previously described in [54]. Briefly, parasitemia was adjusted to 1–1.3%, with >90% rings after sorbitol synchronization. Two hundred microliters of parasite culture were plated in 96-well microplates and incubated for 48 h at 37 °C in the presence of decreasing concentrations of the tested compounds, in triplicate. Parasitemia was determined by fluorescence-assisted cell sorting (FACS). Non-infected RBCs and samples containing parasitized RBCs (including controls with DMSO as carrier solvent) were diluted in PBS to a final concentration of ~1–10 × 10^6 cells/mL. The cell suspension was stained with SYTO 11 (0.5 mM stock in DMSO, Thermo Fisher Scientific, Waltham, MA, USA), to a final concentration of 0.5 μM. Samples were analyzed in a Becton Dickinson FACSCalibur. Sample excitation was carried out using a 488-nm, air-cooled argon-ion laser at a power of 15 mW, using forward and side scatter to gate the RBC population, and SYTO 11 green fluorescence (530 nm, FITC filter) was collected in a logarithmic scale. The single-cell population was selected on a forward–side scattergram, and the green fluorescence from this population was analyzed. Parasitemia was expressed as the number of parasitized cells per 100 erythrocytes.
(§1) Absorbance values derived from the anti-T. cruzi assays and fluorescence values from the anti-P. falciparum and cell toxicity assays were normalized to the controls. In the primary screening at three fixed doses, the compounds’ inhibitory activity was expressed as a percentage of the negative control (100% parasitic growth). In dose–response assays, the compounds’ IC50 and TC50 values were determined with GraphPad Prism 7 software (version 7.00, 2016), using a non-linear regression analysis model defined by the following equation: Y=100 ÷(1+10^((LogIC50−X)×HillSlope))

[1] = test system: T. cruzi Tulahuen strain expressing β-galactosidase; test: T. cruzi primary screening at three fixed concentrations; settings: average of at least three independent experiments; for Primary screening, growth inhibition values at 1 µM: compound at 1 µM; for Primary screening, growth inhibition values at 10 µM: compound at 10 µM
Description: (§2) T. cruzi parasites from the Tulahuen strain (discrete typing unit (DTU) VI) expressing β-galactosidase were maintained in culture by the infection of LLC-MK2 cells in DMEM supplemented with 2% FBS and 1% penicillin–streptomycin–glutamine (PSG), as described in [52]. When free-swimming trypomastigotes were released to the culture medium, they were centrifuged for 7 min at 2500 rpm and allowed to swim out of the pellet. Trypomastigotes were used to maintain the parasite cycle, or for the performance of the antiparasitic assays.
[…] Conditions were tested in triplicate for every concentration. Z-values varied between 0.81 and 0.92 in the different plates analyzed. Selected compounds (34.6% potential hit rate) were further analyzed via standard growth inhibition assays. The Z-values of dose–response assays correlated with those previously reported. For both assays, Vero cells and trypomastigotes from the Tulahuen T. cruzi strain expressing β-galactosidase were harvested, centrifuged, and resuspended in DMEM without phenol red supplemented with 1% PSG, 2% FBS, 1 mM sodium pyruvate, and 25 mM HEPES. Vero cells and trypomastigotes were counted, diluted at a concentration of 1 × 10^6 cells/mL each, and mixed 1:1 (v/v). Then, 100 μL of that mixture was added per well to the plates already containing the compounds. Each well contained 50,000 host cells and 50,000 parasites, i.e., multiplicity of infection (MOI) = 1. BNZ was used as control of maximal drug growth inhibition in each round, whereas each plate contained its own negative control (maximum parasite growth; Vero cells plus parasites without drugs) and positive control (minimum parasite growth; trypomastigote forms alone marking an enzymatic zero time or baseline galactosidase activity). After four days at 37 °C, 50 µL of a PBS solution containing 0.25% NP40 and 500 µM chlorophenol red-β-D-galactopyranoside (CPRG) substrate were added per well [32]. Plates were incubated at 37 °C for 4 h, and their absorbance read out at 590 nm using an Epoch Gene5 spectrophotometer.
as §1

[2] = test system: T. cruzi Tulahuen strain expressing β-galactosidase; test: anti-T. cruzi dose-response growth inhibition assay (Vero cells plus trypomastigotes, CPRG readout); settings: anti-T. cruzi IC50 of non-progressed compounds; read-out: Dose-response assay IC50
Description: as §2
T. cruzi growth was primarily analyzed under three different concentrations ([…]) of the 81 compounds. Conditions were tested in triplicate for every concentration. Z-values varied between 0.81 and 0.92 in the different plates analyzed. Selected compounds (34.6% potential hit rate) were further analyzed via standard growth inhibition assays. The Z-values of dose–response assays correlated with those previously reported. For both assays, Vero cells and trypomastigotes from the Tulahuen T. cruzi strain expressing β-galactosidase were harvested, centrifuged, and resuspended in DMEM without phenol red supplemented with 1% PSG, 2% FBS, 1 mM sodium pyruvate, and 25 mM HEPES. Vero cells and trypomastigotes were counted, diluted at a concentration of 1 × 10^6 cells/mL each, and mixed 1:1 (v/v). Then, 100 μL of that mixture was added per well to the plates already containing the compounds. Each well contained 50,000 host cells and 50,000 parasites, i.e., multiplicity of infection (MOI) = 1. BNZ was used as control of maximal drug growth inhibition in each round, whereas each plate contained its own negative control (maximum parasite growth; Vero cells plus parasites without drugs) and positive control (minimum parasite growth; trypomastigote forms alone marking an enzymatic zero time or baseline galactosidase activity). After four days at 37 °C, 50 µL of a PBS solution containing 0.25% NP40 and 500 µM chlorophenol red-β-D-galactopyranoside (CPRG) substrate were added per well [32]. Plates were incubated at 37 °C for 4 h, and their absorbance read out at 590 nm using an Epoch Gene5 spectrophotometer.
as §1

SMILES	Primary screening, parasite growth relative to the negative control (P. falciparum 3D7; compound at 1 µM) [%]	Primary screening, parasite growth relative to the negative control (P. falciparum 3D7; compound at 10 µM) [%]	Primary screening, parasite growth relative to the negative control (P. falciparum 3D7; compound at 100 µM) [%]	activity at 1 µM (P. falciparum 3D7) [%]	activity at 10 µM (P. falciparum 3D7) [%]	activity at 100 µM (P. falciparum 3D7) [%]	Primary screening, growth inhibition values at 1 µM [1]	Primary screening, growth inhibition values at 10 µM [1]	IC50 [2] [µM]
Cc1nc2c(OCc3ccccc3)ncnc2n1N1CCOCC1 [Compound 22]	97.98	78.53	73.65						
Cc1nc2c(OCc3ccccc3)ncnc2n1C(C)C [MJ5]				100	94.6	88.5	89.81	90.91	
CC(C)Oc1ncnc2c1ncn2C(C)C [MJ16]				111	115	102	100.79	96.93	
CN1CCN(n2c(-c3ccccc3)nc3c(OCc4ccccc4)ncnc32)CC1 [Compound 27]	97.79	87.07	63.16						33.2
Cc1nc2c(OCc3ccccc3)ncnc2n1N(C)C [Compound 4M]	100.27	101.23	88.99				88.68	89.08	
c1ccc(COc2ncnc3c2ncn3N2CCOCC2)cc1 [Compound 23]	101.16	104.67	98.97				93.82	94.90	
CCOc1ncnc2c1ncn2C(C)C [MJ1]	102.27	99.79	94.06				94.41	97.93	
CCOc1ncnc2c1ncn2C(C)(C)C [MJ24]	103.15	102.53	74.90						96.6
Cc1nc2c(OCc3ccccc3)ncnc2n1N1CCN(C)CC1 [Compound 28]	90.78	89.44	44.36						40.4
Cc1nc2c(OC(C)C)ncnc2n1C(C)C [MJ17]	105.71	108.49	94.00				97.87	93.73	
Cc1nc2c(NC(C)(C)C)ncnc2n1C(C)(C)C [Compound 2A]	110.87	112.26	30.73				96.86	88.71	
CC(C)(C)Nc1ncnc2c1ncn2C(C)(C)C [Compound 3F]	110.21	108.90	35.36						64.7
CCOc1ncnc2c1nc(C)n2Cc1ccccc1 [MJ8]	107.34	100.82	82.46						67.9
CCOc1ncnc2c1ncn2Cc1ccccc1 [MJ7]				104	105	53.8	79.69	95.54	
CN(C)n1c(-c2ccccc2)nc2c(OCc3ccccc3)ncnc21 [Compound 4]	97.86	97.42	96.42				94.81	89.88	
Cc1nc2c(OCc3ccccc3)ncnc2n1N1CCCCC1 [Compound 13M]	101.41	100.79	87.03				91.73	92.01	
c1ccc(COc2ncnc3c2ncn3N2CCCCC2)cc1 [Compound 13H]	100.86	97.31	67.76				92.39	93.99	
